Measured values taken from the supplement of paper PMC10307832.

Assays:
Assay in all cases: relative viability (nuclei count vs DMSO), 5 days (fraction); higher = more cells survive
[1] = compound: COc1cc2ncn(-c3cc(OCc4ccccc4C(F)(F)F)c(C(N)=O)s3)c2cc1OC + CC1(C)CCC(c2ccc(Cl)cc2)=C(CN2CCN(c3ccc(C(=O)NS(=O)(=O)c4ccc(N[C@H](CCN5CCOCC5)CSc5ccccc5)c(S(=O)(=O)C(F)(F)F)c4)cc3)CC2)C1 [Navitoclax] (partner 0.5 µM)
Summary of the method: (§1)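 For relative viability, nuclei counts in treated wells were divided by those in vehicle wells. Lung cancer cell lines had been pin-tool dosed in 1536-well plates the day after seeding and cultured for 5 days, then fixed and stained in one step (final 0.05% Triton X-100, 1% formaldehyde, 1 ug/ml Hoechst) and imaged at 4×. Doses were one drug alone or a fixed anchor-drug dose plus five library-drug doses (not always all listed) in √10 steps, and values are duplicate-plate medians.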

[2] = compound: COc1cc2ncn(-c3cc(OCc4ccccc4C(F)(F)F)c(C(N)=O)s3)c2cc1OC + C[C@@H](Oc1cc(-c2cnn(C3CCNCC3)c2)cnc1N)c1c(Cl)ccc(F)c1Cl [Crizotinib] (partner 1 µM)
Summary of the method: as §1

[3] = compound: COc1cc2ncn(-c3cc(OCc4ccccc4C(F)(F)F)c(C(N)=O)s3)c2cc1OC + Cc1nc(Nc2ncc(C(=O)Nc3c(C)cccc3Cl)s2)cc(N2CCN(CCO)CC2)n1 [Dasatinib] (partner 0.075 µM)
Summary of the method: as §1

[4] = compound: COc1cc2ncn(-c3cc(OCc4ccccc4C(F)(F)F)c(C(N)=O)s3)c2cc1OC + O=C(CCCCCCC(=O)Nc1ccccc1)NO [Vorinostat] (partner 1 µM)
Summary of the method: as §1

Cell Line	relative viability ([1]; first compound 0.05 µM)	relative viability ([1]; first compound 0.1581 µM)	relative viability ([1]; first compound 0.5 µM)	relative viability ([1]; first compound 1.581 µM)	relative viability ([1]; first compound 5 µM)	relative viability ([2]; first compound 0.05 µM)	relative viability ([2]; first compound 0.1581 µM)	relative viability ([2]; first compound 0.5 µM)	relative viability ([2]; first compound 1.581 µM)	relative viability ([2]; first compound 5 µM)	relative viability ([3]; first compound 0.05 µM)	relative viability ([3]; first compound 0.1581 µM)	relative viability ([3]; first compound 0.5 µM)	relative viability ([3]; first compound 1.581 µM)	relative viability ([3]; first compound 5 µM)	relative viability ([4]; first compound 0.05 µM)	relative viability ([4]; first compound 0.1581 µM)	relative viability ([4]; first compound 0.5 µM)	relative viability ([4]; first compound 1.581 µM)	relative viability ([4]; first compound 5 µM)
NCI-H1993	1.22	0.912	0.602	0.507	0.503	0.898	0.877	0.693	0.58	0.614	0.649	0.555	0.528	0.503	0.424	0.725	0.736	0.384	0.389	0.348
PC-14	1.03	0.97	0.407	0.151	0.273	0.83	0.828	0.564	–	0.411	0.201	0.235	0.106	0.0176	0.0233	0.662	0.655	0.141	0.0309	0.0197
NCI-H1437	1.13	1.07	0.151	0.13	0.119	1.03	0.812	0.659	0.164	0.101	0.412	0.356	0.322	0.162	0.104	0.717	0.779	0.367	0.334	0.326
NCI-H2170	0.539	0.492	0.202	0.168	0.162	1.25	1.15	0.599	0.268	0.258	0.545	0.406	0.374	0.163	0.156	0.834	0.725	0.386	0.128	0.125
NCI-H441	0.623	0.405	0.233	0.151	0.164	0.634	0.617	0.287	0.152	0.218	0.573	0.538	0.265	0.174	0.168	0.446	0.827	0.195	0.174	0.19
SW 1573	1.06	1.09	0.466	0.115	0.0609	0.786	0.859	0.514	0.134	0.293	0.574	0.416	0.11	0.0632	0.0788	0.834	0.691	0.219	0.142	0.0957
BEN	0.0682	0.0597	0.0733	0.0523	0.0519	0.814	0.839	0.687	0.268	0.526	0.363	0.327	0.29	0.186	0.229	0.643	0.591	0.413	0.33	0.3
LC-2-ad	0.359	0.209	0.0767	0.0906	0.0667	0.485	0.422	0.295	0.212	0.287	0.639	0.594	0.201	0.123	0.133	0.559	0.543	0.129	0.161	0.129
COR-L23	1	0.897	0.38	0.0788	0.091	0.667	0.671	0.3	0.118	0.12	0.434	0.364	0.203	0.102	0.0618	0.381	0.416	0.162	0.0758	0.0932
NCI-H1650	1.29	1.2	0.471	0.153	0.121	1.03	1.03	0.765	0.17	0.194	0.329	0.305	0.268	0.142	0.145	0.484	0.555	0.36	0.154	0.133
SK-LU-1	0.641	0.56	0.794	0.123	0.113	0.935	0.832	0.411	0.296	0.313	0.183	0.198	0.138	0.146	0.158	0.615	0.529	0.301	0.304	0.257
NCI-H1915	0.758	0.739	0.539	0.0643	0.0409	0.916	0.898	0.639	0.123	0.102	0.365	0.281	0.316	0.0798	0.0572	0.497	0.582	0.352	0.0829	0.0666
NCI-H647	1.17	1.08	0.245	0.0619	0.0475	1.01	0.788	0.224	0.113	0.108	0.216	0.144	0.0412	0.0467	0.0528	0.326	0.489	0.113	0.0523	0.0497
NCI-H2009	1.14	1.07	0.666	0.0806	0.0608	1.01	0.825	0.445	0.208	0.253	0.297	0.256	0.152	0.128	0.0782	0.667	0.607	0.302	0.0531	0.0578
NCI-H2126	0.856	0.834	0.662	0.284	0.225	1.05	1	0.849	0.419	0.264	0.584	0.638	0.463	0.248	0.221	0.847	0.759	0.401	0.236	0.216
LXF-289	0.852	0.72	0.192	0.104	0.0566	0.8	0.615	0.453	0.147	0.0723	0.225	0.206	0.124	0.037	0.0349	0.78	0.622	0.421	0.11	0.0692
